Assay results taken from patent publication US11512073B2, “Benzimidazole derivatives, pharmaceutical composition comprising the same, and use thereof” (Chongqing University of Arts and Sciences, priority 2020, dated 2022).

Columns and labels:
MDA-MB-231 cells = test: MTT cell viability assay; assay type: cell-based; settings: Homo sapiens
Description: (§1) Compounds were dissolved in a hydrous dimethylsulfoxide (DMSO, Life technologies) to obtain a 50 mM stock solution, which was then added to the culture medium at a concentration range of 6.25-100 μM. Cells were treated with compounds at indicated concentrations for 48 h, and 0.1% DMSO was used as the vehicle. Z-VAD-FMK was purchased from Selleckchem (Houston, Tex.); The reagents including 3-(4,5-dimethylthiazol-2-yl)-2,5-diphenyltetrazolium bromide (MTT), dimethyl sulfoxide (DMSO), penicillin, streptomycin, propidium iodide (PI) were purchased from Sigma-Aldrich (MO, USA); All the primary antibodies used in this study were from Cell Signaling Technology (MA, USA) and the secondary antibodies were from LI-COR Biosciences (NE, USA).
(§2) Human triple negative breast cancer cell lines MDA-MB-231 and MDA-MB-468 were purchased from the American Type Culture Collection (ATCC, VA, USA). These cells were cultured in high-glucose DMEM (Gibco, USA) supplemented with 10% fetal bovine serum (FBS, Gibco) and 1% penicillin/streptomycin (Gibco) at 37° C. in a humidified incubator containing 5% CO2.
(§3) The antiproliferative activity of compounds was measured with the MTT assay. […] The absorbance value was determined at 570 nm using a microplate reader (Bio-Tek, VT, USA). Data were analyzed by GraphPad Prism 6. […]

MDA-MB-468 cells = test: MTT cell viability assay; assay type: cell-based; settings: Homo sapiens
Description: as §1, §2, §3

IC50 (MDA-MB-231 cells): 8.3 µM | IC50 (MDA-MB-468 cells): 6 µM
SMILES: O=C(NC1CCCCC1)c1[nH]cnc1-c1nc2ccccc2[nH]1 [Compound 7a]
